# Patent publication US9629828B2, “Methods of treating traveler's diarrhea and hepatic encephalopathy” (priority 2008, dated 2017)
# Entries after “also recorded” stand apart in the source; their conditions may differ. Read-outs that look alike come from different tables or passages of the source.
# Columns and labels:
# Campylobacter jejuni = assay: Travelers' diarrhea Study 2: fever/blood in stool, Campylobacter jejuni; parameters: species or system human; conditions: in vivo
# Description: One study was conducted at clinical sites in Mexico, Guatemala, and Kenya (Study 1). The other study was conducted in Mexico, Guatemala, Peru, and India (Study 2). Stool specimens were collected before treatment and 1 to 3 days following the end of treatment to identify enteric pathogens. The predominant pathogen in both studies was Escherichia coli.
# The results of Study 2 supported the results presented for Study 1. […] These subjects had lower clinical cure rates than those without fever or blood in the stool at baseline. Many of the patients with fever and/or blood in the stool (dysentery-like diarrheal syndromes) had invasive pathogens, primarily Campylobacter jejuni, isolated in the baseline stool.
# In addition to not being different from placebo, the microbiologic eradication rates for subjects with Campylobacter jejuni isolated at baseline were much lower than the eradication rates seen for Escherichia coli.
# [1] = system: Gram-positive and Gram-negative bacteria, such as Escherichia coli; assay: In vitro antibacterial activity / susceptibility (NCCLS agar dilution M7-A6); format: cell-based
# Description: In vitro susceptibility testing was performed according to the National Committee for Clinical Laboratory Standards (NCCLS) agar dilution method M7-A612.
# Methods for dilution antimicrobial susceptibility tests for bacteria that grow aerobically. National Committee for Clinical Laboratory Standards, Sixth Edition, Wayne Pa. Approved Standard NCCLS Document M7-A6 Jan.
# P-gp transporter = P-gp transporter (Homo sapiens, UniProt P08183); assay: In vitro P-gp transporter inhibition; format: in vitro ADME; conditions: 50 μM
# P-gp transporter, sequence (P08183 whole entry): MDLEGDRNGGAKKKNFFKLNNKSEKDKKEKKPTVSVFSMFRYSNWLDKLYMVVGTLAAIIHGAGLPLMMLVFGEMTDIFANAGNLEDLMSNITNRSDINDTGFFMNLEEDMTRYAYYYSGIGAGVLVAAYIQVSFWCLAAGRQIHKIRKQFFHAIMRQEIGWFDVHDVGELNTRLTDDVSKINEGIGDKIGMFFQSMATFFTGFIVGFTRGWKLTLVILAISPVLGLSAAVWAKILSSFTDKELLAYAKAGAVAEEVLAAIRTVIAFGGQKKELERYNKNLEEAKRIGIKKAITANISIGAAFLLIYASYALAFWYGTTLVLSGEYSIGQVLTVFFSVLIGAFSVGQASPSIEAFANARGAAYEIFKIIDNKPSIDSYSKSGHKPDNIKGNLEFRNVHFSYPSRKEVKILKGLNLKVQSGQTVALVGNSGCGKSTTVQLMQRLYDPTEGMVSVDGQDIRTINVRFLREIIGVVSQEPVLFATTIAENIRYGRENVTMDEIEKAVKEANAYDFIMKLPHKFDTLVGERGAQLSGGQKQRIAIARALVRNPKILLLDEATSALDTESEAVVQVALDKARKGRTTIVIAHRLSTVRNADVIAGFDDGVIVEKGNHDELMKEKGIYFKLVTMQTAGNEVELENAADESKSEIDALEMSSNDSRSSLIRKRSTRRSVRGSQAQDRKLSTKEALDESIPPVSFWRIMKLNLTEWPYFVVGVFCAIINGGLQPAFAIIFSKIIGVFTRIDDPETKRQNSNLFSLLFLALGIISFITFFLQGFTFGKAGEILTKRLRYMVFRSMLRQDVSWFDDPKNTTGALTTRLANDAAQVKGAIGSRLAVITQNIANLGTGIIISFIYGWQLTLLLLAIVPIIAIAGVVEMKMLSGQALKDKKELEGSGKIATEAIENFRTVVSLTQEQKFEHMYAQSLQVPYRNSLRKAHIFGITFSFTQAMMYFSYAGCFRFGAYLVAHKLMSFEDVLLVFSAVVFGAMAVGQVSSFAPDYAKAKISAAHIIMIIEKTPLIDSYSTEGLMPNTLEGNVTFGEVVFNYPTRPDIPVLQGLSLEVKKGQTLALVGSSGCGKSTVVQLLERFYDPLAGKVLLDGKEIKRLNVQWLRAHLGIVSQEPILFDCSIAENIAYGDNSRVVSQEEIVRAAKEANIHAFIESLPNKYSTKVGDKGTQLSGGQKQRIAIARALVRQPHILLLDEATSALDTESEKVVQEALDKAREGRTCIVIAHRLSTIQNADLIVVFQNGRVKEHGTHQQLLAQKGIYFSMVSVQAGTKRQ
# Shigella flexneri 2a = assay: Open-label Shigella flexneri 2a challenge study; format: in vivo, human; conditions: 13 treated subjects, 200 mg every 8 hours 3 days
# [2] = system: subjects with a history of recurrent, overt, episodic HE; assay: Second study: hospitalization rates; format: in vivo, human
# From the text: Normalizing for subject exposure, this represents a hospitalization rate of 0.60 event/PEY. A total of 59 were hospitalized due HE episodes (e.g., HE-caused). Normalizing for subject exposure, this represents an HE-caused hospitalization rate of 0.29 event/PEY. […] All subjects were capable of worsening over time, and 24/266 subjects (9.0%) did so by 1 or 2 grades.
# [3] = system: subjects in remission from hepatic encephalopathy (HE); assay: First study: asterixis grade (time to any increase, change from baseline); format: in vivo, human; conditions: for Probability of no increase in asterixis grade: Kaplan-Meier; for Probability of no increase in asterixis grade / Cumulative number of events (increase in asterixis grade) / Event probability (increase in asterixis grade during the treatment interval) / Number of events (increase in asterixis grade): ITT, N = 140
# Description: Asterixis (flapping tremor) was determined with the subject holding both arms and forearms extended with wrists dorsiflexed and fingers open for ≧30 seconds. Asterixis was measured on a continuum of 5 grades, e.g., grades 0 and 4=no abnormal movement vs. almost continuous flapping motions, respectively as shown below:
# Efficacy in regard to asterixis grade was measured as time to any increase from baseline in asterixis grade.
# FIG. 12 illustrates time to any increase from baseline in asterixis grade by treatment group in the ITT population in the first study. Table 21 presents estimates of the proportions of subjects who had any increase in asterixis grade over the course of the Treatment Period and results of statistical analyses. Subjects who discontinued prior to experiencing an increase in asterixis grade and prior to completion of the 6-month treatment period were censored at the time of discontinuation.
# [4] = system: patients with hepatic encephalopathy; assay: First study: adverse events, rifaximin 550 mg BID; format: in vivo, human
# From the text: Ninety-one percent of patients in the trial were taking lactulose concomitantly. […] (These include adverse events that may be attributable to the underlying disease.)
# The following includes adverse events occurring at a greater incidence than placebo, regardless of causal relationship to drug exposure.
# A total of 79.9% of subjects (239 of 299) experienced TEAEs during the course of the study.
# P-glycoprotein = P-glycoprotein (Homo sapiens, UniProt P08183); assay: In vitro P-glycoprotein substrate study (efflux ratio, verapamil); format: in vitro ADME
# P-glycoprotein, sequence (P08183 whole entry): as above
# From the text: Therefore, no clinically significant interactions with other drugs affected by P-glycoprotein are anticipated.
# rat hepatocyte = format: cell-based
# [5] = both, human, in vivo
# Description: Two studies evaluated the pharmacokinetics of rifaximin in patients with hepatic impairment. […] Because of the limited systemic absorption of rifaximin, no specific dosing adjustments are recommended for patients with hepatic insufficiency.
# A pharmacokinetic investigation was performed in subjects with HE in a dose-finding study.
# [6] = treatment interval 0 to <28 days
# [7] = treatment interval 28 to <56 days
# [8] = treatment interval 56 to <84 days
# [9] = treatment interval 84 to <140 days
# [10] = treatment interval 140 to <168 days
structure (smiles),measurement,setting,value
"CO[C@H]1/C=C/O[C@@]2(C)Oc3c(C)c(O)c4c(O)c(c5c(nc6cc(C)ccn65)c4c3C2=O)NC(=O)/C(C)=C\C=C\[C@H](C)[C@H](O)[C@@H](C)[C@@H](O)[C@@H](C)[C@H](OC(C)=O)[C@@H]1C [rifaximin, (2S,16Z,18E,20S,21S,22R,23R,24R,25 S,26S,27S,28E)-5,6,21,23,25-pentahydroxy-27-methoxy-2,4,11,16,20,22,24,26-octamethyl-2,7-(epoxypentadeca-[1,11,13]trienimino)benzofuro[4,5-e]pyrido[1,2-á]-benzimidazole-1,15(2H)-dione,25-acetate]","clinical cure rate, Campylobacter jejuni as sole pathogen at baseline",Campylobacter jejuni,23.5%
same,effectiveness in travelers' diarrhea due to Campylobacter jejuni,Campylobacter jejuni,not effective
same,in vitro antibacterial activity,[1],active
same,in vitro antibacterial activity,[1]; listed as Rifaximin,in vitro antimicrobial activity; also recorded: broad spectrum of in vitro antibacterial activity
same,inhibition of transport of a model P-gp substrate,P-gp transporter,only partially inhibited
same,rescue treatment with ciprofloxacin,Shigella flexneri 2a,eight subjects received rescue treatment
same,subjects hospitalized due HE episodes,[2]; in vivo,59 subjects
same,subjects hospitalized for any cause,[2]; in vivo,133 of 266
same,HE-caused hospitalization rate,[2]; second study,0.29 event/PEY
same,Number of subjects in each level of change from baseline in asterixis grade,"[3]; Baseline to EOT, level: r10 −2, r11 −1, r12 0, r13 1, r14 2, r15 3, r16 4",18 (12.9%) n (%)
same,Probability of no increase in asterixis grade,[3]; [6],1.0000
same,Probability of no increase in asterixis grade,[3]; [7],0.9048
same,Probability of no increase in asterixis grade,[3]; [8],0.8499
same,Probability of no increase in asterixis grade,[3]; [9],0.7910
same,Probability of no increase in asterixis grade,[3]; [10],0.7637
same,Probability of no increase in asterixis grade,[3]; treatment interval ≧168 days,0.7534
same,"subjects with changes in asterixis grade of 1, 2, 3, or 4",[3]; baseline to end of treatment,11.6%
same,"subjects with changes in asterixis grade of −2, −1, and 0",[3]; baseline to end of treatment,88.5%
same,"prevention of worsening of asterixis grade, times versus placebo",[3]; in vivo,1.92 times
same,reduction in risk of worsening of asterixis,[3]; in vivo,35%
same,subjects with increases in asterixis grade,[3]; in vivo,32 of 140
same,time to first increase in Asterixis grade vs placebo (FIG. 5),[3]; in vivo,increased time to the first increase in Asterixis grade
same,Cumulative number of events (increase in asterixis grade),[3]; [6],13
same,Event probability (increase in asterixis grade during the treatment interval),[3]; [6],0.10
same,Number of events (increase in asterixis grade),[3]; [6],13
same,Cumulative number of events (increase in asterixis grade),[3]; [7],20
same,Event probability (increase in asterixis grade during the treatment interval),[3]; [7],0.06
same,Number of events (increase in asterixis grade),[3]; [7],7
same,Cumulative number of events (increase in asterixis grade),[3]; [8],27
same,Event probability (increase in asterixis grade during the treatment interval),[3]; [8],0.07
same,Number of events (increase in asterixis grade),[3]; [8],7
same,Cumulative number of events (increase in asterixis grade),[3]; [9],30
same,Event probability (increase in asterixis grade during the treatment interval),[3]; [9],0.03
same,Number of events (increase in asterixis grade),[3]; [9],3
same,Cumulative number of events (increase in asterixis grade),[3]; [10],31
same,Event probability (increase in asterixis grade during the treatment interval),[3]; [10],0.01
same,Number of events (increase in asterixis grade),[3]; [10],1
same,Cumulative number of events (increase in asterixis grade),[3]; treatment interval ≧168 days,32
same,Event probability (increase in asterixis grade during the treatment interval),[3]; treatment interval ≧168 days,0.03
same,Number of events (increase in asterixis grade),[3]; treatment interval ≧168 days,1
same,Abdominal distension,"[4]; 550 mg BID, N = 140",11 (7.9%) Number (%) of Patients
same,Abdominal pain,"[4]; 550 mg BID, N = 140",12 (8.6%) Number (%) of Patients
same,Abdominal pain upper,"[4]; 550 mg BID, N = 140",9 (6.4%) Number (%) of Patients
same,Anemia,"[4]; 550 mg BID, N = 140",11 (7.9%) Number (%) of Patients
same,Arthralgia,"[4]; 550 mg BID, N = 140",9 (6.4%) Number (%) of Patients
same,Ascites,"[4]; 550 mg BID, N = 140",16 (11.4%) Number (%) of Patients
same,Back pain,"[4]; 550 mg BID, N = 140",9 (6.4%) Number (%) of Patients
same,Constipation,"[4]; 550 mg BID, N = 140",9 (6.4%) Number (%) of Patients
same,Cough,"[4]; 550 mg BID, N = 140",10 (7.1%) Number (%) of Patients
same,Depression,"[4]; 550 mg BID, N = 140",10 (7.1%) Number (%) of Patients
same,Dizziness,"[4]; 550 mg BID, N = 140",18 (12.9%) Number (%) of Patients
same,Dyspnea,"[4]; 550 mg BID, N = 140",9 (6.4%) Number (%) of Patients
same,Edema peripheral,"[4]; 550 mg BID, N = 140",21 (15.0%) Number (%) of Patients
same,Fatigue,"[4]; 550 mg BID, N = 140",17 (12.1%) Number (%) of Patients
same,Insomnia,"[4]; 550 mg BID, N = 140",10 (7.1%) Number (%) of Patients
same,Muscle spasms,"[4]; 550 mg BID, N = 140",13 (9.3%) Number (%) of Patients
same,Nasopharyngitis,"[4]; 550 mg BID, N = 140",10 (7.1%) Number (%) of Patients
same,Nausea,"[4]; 550 mg BID, N = 140",20 (14.3%) Number (%) of Patients
same,Pruritus,"[4]; 550 mg BID, N = 140",13 (9.3%) Number (%) of Patients
same,Pyrexia,"[4]; 550 mg BID, N = 140",9 (6.4%) Number (%) of Patients
same,Rash,"[4]; 550 mg BID, N = 140",7 (5.0%) Number (%) of Patients
same,TEAE ascites,[4]; first study,11.4%
same,TEAE diarrhea,[4]; first study,10.7%
same,TEAE dizziness,[4]; first study,12.9%
same,TEAE fatigue,[4]; first study,12.1%
same,TEAE headache,[4]; first study,10%
same,TEAE nausea,[4]; first study,14.3%
same,TEAE peripheral edema,[4]; first study,15%
same,early study discontinuation due to adverse reactions,[4]; in vivo,6%
same,P-glycoprotein substrate,P-glycoprotein,substrate of P-glycoprotein; also recorded: substrate for P-glycoprotein
same,genotoxicity,rat hepatocyte,not genotoxic
same,mean amount recovered in 24-h urine after last dose,[5],0.06-0.1 % of dose
same,administered dose recovered in urine,[5]; 7 days,less than 0.1%
